Measured values as given in patent publication US20240041042A1, “1-(PYRIDYL)-5-AZINYLPYRAZOLE DERIVATIVES, AND THEIR USE FOR CONTROL OF UNDESIRED PLANT GROWTH” (Bayer Aktiengesellschaft, priority 2020, published 2024).
Like-named read-outs stand apart in the source and are kept apart here. Values belong to the compound of their own block, whether it stands above or below them.

Assays:
Type in all cases: in vivo
Lolium rigidum (LOLRI) [1] = assay: Post-emergence herbicidal action against LOLRI; details: dosage 320 g/ha
Outline: (§1)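 Doses of 320 g/ha or lower, suffixes a, b and c marking different dosages, were applied post-emergence at the one-leaf stage in 600 l/ha water with 0.5% additive. Damage was assessed visually after about 3 weeks in the greenhouse.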

[2] = tested on: Matricaria inodora (MATIN); assay: Pre-emergence herbicidal action against MATIN
Outline: (§2)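 Greenhouse pot trial: seeds sown, soil-covered, sprayed before emergence with compound in water (0.5% additive; 600 l/ha; ≤320 g/ha). Scoring visual, ~3 weeks, 0–100% scale vs untreated.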

[3] = tested on: Alopecurus myosuroides (ALOMY); assay: Pre-emergence herbicidal action against ALOMY; details: scored visually after about 3 weeks, 100% = plants have died
Outline: as §2

[4] = tested on: Verconica persica (VERPE); assay: Post-emergence herbicidal action against VERPE
Outline: as §1

[5] = tested on: Alopecurus myosuroides (ALOMY); assay: Post-emergence herbicidal action against ALOMY; details: visual rating about 3 weeks after treatment vs untreated controls (100% = plants have died, 0% = like control plants)
Outline: as §1

Viola tricolor (VIOTR) [6] = assay: Post-emergence herbicidal action against VIOTR
Outline: as §1

[7] = tested on: Echinochloa crus-galli (ECHCG); assay: Post-emergence herbicidal action against ECHCG
Outline: as §1

Setaria viridis (SETVI) [8] = assay: Post-emergence herbicidal action against SETVI
Outline: as §1

Zea mays (ZEAMX) [9] = details: pre-emergence, 80 g/ha, crop plant compatibility, in comparison to untreated controls
Source text: (§3) Seeds of monocotyledonous and dicotyledonous weed plants and crop plants are placed in plastic or organic planting pots and covered with soil. The compounds of the invention, formulated in the form of wettable powders (WP) or as emulsion concentrates (EC), are then applied to the surface of the covering soil as aqueous suspension or emulsion with addition of 0.5% additive at a water application rate equivalent to 600 l/ha. After the treatment, the pots are placed in a greenhouse and kept under good growth conditions for the trial plants. After about 3 weeks, the effect of the preparations is scored visually in comparison with untreated controls as percentages. For example, 100% activity=the plants have died, 0% activity=like control plants.
The observed effects on selected crop plants are reported here in comparison to the untreated controls (values in %). The appendices “a” “b” and “c” give differentiation by dosage used with otherwise the same crop plants tested.

Setaria viridis (SETVI) [10] = assay: Pre-emergence herbicidal action against SETVI
Outline: as §2

[11] = tested on: Pharbitis purpurea (PHBPU); assay: Post-emergence herbicidal action against PHBPU
Outline: as §1

[12] = tested on: Matricaria inodora (MATIN); assay: Post-emergence herbicidal action against MATIN
Outline: as §1

[13] = tested on: Polygonum convolvulus (POLCO); assay: Pre-emergence herbicidal action against POLCO; details: dosage 320 g/ha
Outline: as §2

Avena fatua (AVEFA) [14] = assay: Post-emergence herbicidal action against AVEFA; details: visual rating about 3 weeks after treatment
Outline: as §1

[15] = tested on: Echinochloa crus-galli (ECHCG); assay: Pre-emergence herbicidal action against ECHCG; details: dosage 320 g/ha
Outline: as §2

[16] = tested on: Triticum aestivum (TRZAS); details: crop plant compatibility, 80 g/ha, effect vs untreated controls
Outline: (§4)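 Effects were read visually as % versus untreated controls (0% = no effect, 100% = death) about 3 weeks post-treatment. Application was a post-emergence spray at the one-leaf stage of WP/EC formulations with 0.5% additive at 600 l/ha. Different dosages are denoted a, b and c.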

Zea mays (ZEAMX) [17] = details: for Post-emergence action against ZEAMX in %: crop plant compatibility, 80 g/ha, effect vs untreated controls
Outline: as §4

[18] = tested on: Amaranthus retroflexus (AMARE); assay: Pre-emergence herbicidal action against AMARE; details: visual scoring after about 3 weeks vs untreated controls
Outline: as §2

[19] = tested on: Amaranthus retroflexus (AMARE); assay: Post-emergence herbicidal action against AMARE
Outline: as §1

[20] = tested on: Polygonum convolvulus (POLCO); assay: Post-emergence herbicidal action against POLCO; details: dosage 320 g/ha
Outline: as §1

Viola tricolor (VIOTR) [21] = assay: Pre-emergence herbicidal action against VIOTR
Outline: as §2

[22] = tested on: Verconica persica (VERPE); assay: Pre-emergence herbicidal action against VERPE
Outline: as §2

Oryza sativa (ORYSA) = details: crop plant compatibility
Outline: as §4

[23] = tested on: Pharbitis purpurea (PHBPU); assay: Pre-emergence herbicidal action against PHBPU; details: dosage 320 g/ha
Outline: as §2

[24] = tested on: Abutilon theophrasti (ABUTH); assay: Post-emergence herbicidal action against ABUTH; details: 320 g/ha, visual rating about 3 weeks after treatment vs untreated controls (100% = plants have died, 0% = like control plants)
Outline: as §1

Lolium rigidum (LOLRI) [25] = assay: Pre-emergence herbicidal action against LOLRI
Outline: as §2

[26] = tested on: Digitaria sanguinalis (DIGSA); assay: Post-emergence herbicidal action against DIGSA; details: 80 g/ha, visual rating about 3 weeks after treatment
Outline: as §1

Avena fatua (AVEFA) [27] = assay: Pre-emergence herbicidal action against AVEFA; details: 320 g/ha, visual scoring after about 3 weeks vs untreated controls
Outline: as §2

[28] = tested on: Digitaria sanguinalis (DIGSA); assay: Pre-emergence herbicidal action against DIGSA
Source text: as §3
Tables A1 to A13 below show the effects of selected compounds of the general formula (I) on various harmful plants and at an application rate corresponding to 320 g/ha or lower, which were obtained by the experimental procedure mentioned above. The appendices “a”, “b” and “c” give differentiation by dosage used with otherwise the same harmful plants tested.

[29] = 80 g/ha, visual rating about 3 weeks after treatment vs untreated controls (100% = plants have died, 0% = like control plants)
[30] = 320 g/ha, visual rating about 3 weeks after treatment

Pre-emergence action against ZEAMX in % (Zea mays (ZEAMX) [9]): 0%
Post-emergence action against TRZAS in % [16]: 0%
Post-emergence action against ZEAMX in % (Zea mays (ZEAMX) [17]): 0%
Compound: CCOC(=O)COc1nn(-c2ncccc2F)c(-c2ccc(F)nc2)c1F [Example I-354]
Post-emergence action against LOLRI in % (Lolium rigidum (LOLRI) [1]): 90%
Pre-emergence action against MATIN in % ([2]; dosage 320 g/ha): 90%
Pre-emergence action against ALOMY ([3]; 320 g/ha): 80%
Post-emergence action against VERPE in % ([4]; 320 g/ha, VERPE): 90%
Post-emergence action against ALOMY in % ([5]; 320 g/ha): 90%
Post-emergence action against VIOTR in % (Viola tricolor (VIOTR) [6]; 80 g/ha): 80%
Post-emergence action against VIOTR in % (Viola tricolor (VIOTR) [6]; 320 g/ha): 80%
Post-emergence action against ECHCG in % ([7]; dosage 320 g/ha): 100%
Post-emergence action against SETVI in % (Setaria viridis (SETVI) [8]; dosage 80 g/ha): 80%
Post-emergence action against SETVI in % (Setaria viridis (SETVI) [8]; dosage 320 g/ha): 80%
Pre-emergence action against SETVI in % (Setaria viridis (SETVI) [10]; dosage 320 g/ha): 90%
Post-emergence action against PHBPU in % ([11]; dosage 320 g/ha): 90%
Post-emergence action against MATIN in % ([12]; dosage 80 g/ha): 80%
Post-emergence action against MATIN in % ([12]; dosage 320 g/ha): 80%
Pre-emergence action against POLCO in % [13]: 80%
Post-emergence action against AVEFA in % (Avena fatua (AVEFA) [14]; 320 g/ha): 80%
Pre-emergence action against ECHCG in % [15]: 100%
Pre-emergence action against AMARE in % ([18]; 80 g/ha): 80%
Pre-emergence action against AMARE in % ([18]; 320 g/ha): 90%
Post-emergence action against AMARE in % [19, 29]: 80%
Post-emergence action against AMARE in % [19, 30]: 80%
Post-emergence action against POLCO in % [20]: 80%

Pre-emergence action against ZEAMX in % (Zea mays (ZEAMX) [9]): 20%
Post-emergence action against ORYSA in % (Oryza sativa (ORYSA); 80 g/ha, effect in comparison to untreated controls): 20%
Post-emergence action against TRZAS in % [16]: 20%
Compound: CCOC(=O)COc1nn(-c2ncccc2C(F)(F)F)c(-c2cncc(F)c2)c1Br [Example I-202]
Pre-emergence action against MATIN in % ([2]; dosage 320 g/ha): 80%
Pre-emergence action against ALOMY ([3]; 320 g/ha): 80%
Post-emergence action against VERPE in % ([4]; 320 g/ha, VERPE): 80%
Post-emergence action against VIOTR in % (Viola tricolor (VIOTR) [6]; 80 g/ha): 80%
Post-emergence action against VIOTR in % (Viola tricolor (VIOTR) [6]; 320 g/ha): 80%
Post-emergence action against ECHCG in % ([7]; dosage 80 g/ha): 80%
Post-emergence action against ECHCG in % ([7]; dosage 320 g/ha): 90%
Post-emergence action against SETVI in % (Setaria viridis (SETVI) [8]; dosage 320 g/ha): 80%
Pre-emergence action against VIOTR in % (Viola tricolor (VIOTR) [21]; 320 g/ha, Viola tricolor): 100%
Pre-emergence action against VIOTR in % (Viola tricolor (VIOTR) [21]; dosage 80 g/ha): 90%
Pre-emergence action against SETVI in % (Setaria viridis (SETVI) [10]; dosage 320 g/ha): 90%
Post-emergence action against PHBPU in % ([11]; dosage 320 g/ha): 90%
Pre-emergence action against VERPE in % ([22]; dosage 80 g/ha): 80%
Pre-emergence action against VERPE in % ([22]; dosage 320 g/ha): 90%
Pre-emergence action against POLCO in % [13]: 90%
Pre-emergence action against ECHCG in % [15]: 90%
Pre-emergence action against AMARE in % ([18]; 320 g/ha): 90%
Post-emergence action against AMARE in % [19, 30]: 80%
Post-emergence action against POLCO in % [20]: 80%
Pre-emergence action against PHBPU in % [23]: 90%
Post-emergence action against ABUTH in % [24]: 80%

Post-emergence action against ORYSA in % (Oryza sativa (ORYSA); 20 g/ha, effect vs untreated controls): 10%
Post-emergence action against ZEAMX in % (crop plant compatibility) (Zea mays (ZEAMX) [17]; 20 g/ha, ZEAMX, effect in comparison to untreated controls): 0%
Post-emergence action against ZEAMX in % (Zea mays (ZEAMX) [17]): 10%
Compound: O=C(COc1nn(-c2ncccc2F)c(-c2ccc(F)nc2)c1Br)OCc1ccccn1 [Example I-46]
Pre-emergence action against MATIN in % ([2]; dosage 80 g/ha): 90%
Pre-emergence action against MATIN in % ([2]; dosage 320 g/ha): 90%
Pre-emergence action against ALOMY ([3]; 80 g/ha): 90%
Pre-emergence action against ALOMY ([3]; 320 g/ha): 100%
Post-emergence action against VERPE in % ([4]; dosage 80 g/ha): 80%
Post-emergence action against ALOMY in % ([5]; 80 g/ha): 90%
Pre-emergence action against LOLRI in % (Lolium rigidum (LOLRI) [25]; dosage 80 g/ha): 90%
Pre-emergence action against LOLRI in % (Lolium rigidum (LOLRI) [25]; dosage 320 g/ha): 100%
Pre-emergence action against VIOTR in % (Viola tricolor (VIOTR) [21]; 320 g/ha, Viola tricolor): 100%
Pre-emergence action against VIOTR in % (Viola tricolor (VIOTR) [21]; dosage 80 g/ha): 90%
Pre-emergence action against SETVI in % (Setaria viridis (SETVI) [10]; dosage 80 g/ha): 90%
Pre-emergence action against SETVI in % (Setaria viridis (SETVI) [10]; dosage 320 g/ha): 100%
Post-emergence action against PHBPU in % ([11]; dosage 80 g/ha): 80%
Pre-emergence action against VERPE in % ([22]; dosage 320 g/ha): 100%
Pre-emergence action against POLCO in % [13]: 80%
Post-emergence action against AVEFA in % (Avena fatua (AVEFA) [14]; 80 g/ha): 80%
Post-emergence action against DIGSA in % [26]: 90%
Pre-emergence action against ECHCG in % [15]: 90%
Pre-emergence action against AMARE in % ([18]; 80 g/ha): 100%
Pre-emergence action against AMARE in % ([18]; 320 g/ha): 100%
Post-emergence action against AMARE in % [19, 29]: 90%
Pre-emergence action against AVEFA in % (Avena fatua (AVEFA) [27]): 90%
Pre-emergence action against DIGSA in % ([28]; 80 g/ha, visual scoring after about 3 weeks vs untreated controls): 100%
Pre-emergence action against DIGSA in % ([28]; dosage 320 g/ha): 100%
